Reference: patent US20150004134A1, “TREATMENT OF CANCER WITH HETEROCYCLIC INHIBITORS OF GLUTAMINASE” (Calithera Biosciences, Inc., priority 2012, published 2015)

Tested on: P493-6 (myc "on") cells
Experiment: Cell Proliferation Assay
Assay type: cell-based
Details: P493-6, 72 h, read-out: Cell prolif P493 72 h IC50, P493 cells, 72 h
Summary of the method: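 P493-6 cells with myc on, 10,000 per well in RPMI/10% FBS, exposed to serially diluted compound (0.5% DMSO final) for 72 h at 37 °C, 5% CO2. Antiproliferative effect read by Cell Titer Glo luminescence or Viacount FACS viability count.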

Row | SMILES | IC50 [nM]
1 | COC(=O)C(C(=O)Nc1nnc(CCSCCc2nnc(NC(=O)C(C(=O)OC)c3ccccc3)s2)s1)c1ccccc1 (centres unmarked) [Compound 234] | 2500
2 | O=C(Cc1cccc(OCCO)c1)Nc1nnc(CCSCCc2nnc(NC(=O)Cc3cccc(OCCO)c3)s2)s1 [Compound 236] | 1400
3 | O=C(Cc1cccs1)Nc1nnc(CCSCc2nnc(NC(=O)Cc3cccs3)s2)s1 [Compound 237] | 250
4 | O=C(Cc1cccc(OCCN2CCOCC2)c1)Nc1nnc(CCSCCc2nnc(NC(=O)Cc3cccc(OCCN4CCOCC4)c3)s2)s1 [Compound 240] | 1300
5 | O=C(CN1C(=O)OC[C@H]1c1ccccc1)Nc1nnc(CCSCCc2nnc(NC(=O)CN3C(=O)OC[C@H]3c3ccccc3)s2)s1 [Compound 243] | 33000
6 | COc1ccccc1C(CO)C(=O)Nc1nnc(CCSCCc2nnc(NC(=O)C(CO)c3ccccc3OC)s2)s1 (centres unmarked) [Compound 245] | 2500
7 | COc1ccccc1CC(=O)Nc1nnc(CCSCCc2nnc(NC(=O)C(CO)c3ccccc3OC)s2)s1 (centres unmarked) [Compound 246] | 1600
8 | Cc1cccc(CC(=O)Nc2nnc(CCSCCc3nnc(NC(=O)Cc4cccc(C)c4)s3)s2)c1 [Compound 247] | 830
9 | COc1ccccc1CC(=O)Nc1nnc(CCSCc2nnc(NC(=O)Cc3ccccc3OC)s2)s1 [Compound 249] | 160
10 | COCOCCOC(C(=O)Nc1nnc(CCCCc2nnc(NC(=O)C(OCCOCOC)c3ccccc3)s2)s1)c1ccccc1 (centres unmarked) [Compound 251] | 2800
11 | O=C(Nc1nnc(CCCCc2nnc(NC(=O)C(OCCO)c3ccccc3)s2)s1)C(OCCO)c1ccccc1 (centres unmarked) [Compound 252] | 6300
12 | COc1cccc(C(CO)C(=O)Nc2nnc(CCCCc3nnc(NC(=O)C(CO)c4cccc(OC)c4)s3)s2)c1 (centres unmarked) [Compound 257] | 73
13 | COc1cccc(C(CO)C(=O)Nc2nnc(CCSCc3nnc(NC(=O)C(CO)c4cccc(OC)c4)s3)s2)c1 (centres unmarked) [Compound 258] | 180
14 | COc1cccc(CC(=O)Nc2nnc(CCSCCc3nnc(NC(=O)Cc4cccc(OC)c4OC)s3)s2)c1OC [Compound 259] | 570
15 | COc1cccc(CC(=O)Nc2nnc(CCCCc3nnc(NC(=O)Cc4cccc(OC)c4OC)s3)s2)c1OC [Compound 260] | 84
16 | CC(C(=O)Nc1nnc(CCSCCc2nnc(NC(=O)C(C)c3ccccc3Cl)s2)s1)c1ccccc1Cl (centres unmarked) [Compound 261] | 2600
17 | Cc1ccccc1C(C)C(=O)Nc1nnc(CCSCCc2nnc(NC(=O)C(C)c3ccccc3C)s2)s1 (centres unmarked) [Compound 262] | 3100
18 | COc1ccccc1C(C)C(=O)Nc1nnc(CCSCCc2nnc(NC(=O)C(C)c3ccccc3OC)s2)s1 (centres unmarked) [Compound 263] | 3900
19 | COc1ccccc1CC(=O)Nc1nnc(CCCCc2nnc(NC(=O)Cc3ccccc3OC)s2)s1 [Compound 264] | 10
20 | COc1ccc(OC)c(CC(=O)Nc2nnc(CCCc3nnc(NC(=O)Cc4cc(OC)ccc4OC)s3)s2)c1 [Compound 265] | 310
21 | CC(=O)NCC(C(=O)Nc1nnc(CCCCc2nnc(NC(=O)C(CNC(C)=O)c3ccccc3)s2)s1)c1ccccc1 (centres unmarked) [Compound 266] | > 50000
22 | O=C(Cc1cccc(OCCN2CCOCC2)c1)Nc1nnc(CCSCc2nnc(NC(=O)Cc3cccc(OCCN4CCOCC4)c3)s2)s1 [Compound 267] | 640
23 | O=C(Cc1ccc2ncccc2c1)Nc1nnc(CCSCCc2nnc(NC(=O)Cc3ccc4ncccc4c3)s2)s1 [Compound 268] | 5400

Row | SMILES | IC50 [nM]
24 | O=C(Cc1ccc2ncccc2c1)Nc1nnc(CCCCc2nnc(NC(=O)Cc3ccc4ncccc4c3)s2)s1 [Compound 269] | 520
25 | O=C(Cc1cccc(Br)c1)Nc1nnc(CCSCCc2nnc(NC(=O)Cc3cccc(Br)c3)s2)s1 [Compound 270] | 850
26 | COc1ccc(OC)c(CC(=O)Nc2nnc(CCCCc3nnc(NC(=O)Cc4ccccc4)s3)s2)c1 [Compound 271] | 630
27 | O=C(Cc1cccc(F)c1)Nc1nnc(CCCCc2nnc(NC(=O)Cc3cccc(F)c3)s2)s1 [Compound 273] | 70
28 | CC(C(=O)Nc1nnc(CCCCc2nnc(NC(=O)C(C)c3ccccc3Cl)s2)s1)c1ccccc1Cl (centres unmarked) [Compound 274] | 680
29 | CC(C)(C)OC(=O)N1CCN(Cc2cccc(CC(=O)Nc3nnc(CCSCc4nnc(NC(=O)Cc5cccc(CN6CCN(C(=O)OC(C)(C)C)CC6)c5)s4)s3)c2)CC1 [Compound 275] | 340
30 | O=C(Nc1nnc(CCCCc2nnc(NC(=O)C(O)(CO)c3ccccc3)s2)s1)C(O)(CO)c1ccccc1 (centres unmarked) [Compound 278] | 160
31 | CC1(C)OCC(C(=O)Nc2nnc(CCCCc3nnc(NC(=O)Cc4ccccc4)s3)s2)(c2ccccc2)O1 (centres unmarked) [Compound 279] | 7000
32 | O=C(Cc1ccccc1)Nc1nnc(CCCCc2nnc(NC(=O)C(O)(CO)c3ccccc3)s2)s1 (centres unmarked) [Compound 280] | 230
33 | O=C(Cc1ccccc1Br)Nc1nnc(CCCCc2nnc(NC(=O)Cc3ccccc3Br)s2)s1 [Compound 282] | 370
34 | O=C(Cc1ccccc1Br)Nc1nnc(CCSCCc2nnc(NC(=O)Cc3ccccc3Br)s2)s1 [Compound 283] | 740
35 | O=C(Cc1cccc(-n2cccn2)c1)Nc1nnc(CCCCc2nnc(NC(=O)Cc3cccc(-n4cccn4)c3)s2)s1 [Compound 285] | 140
36 | O=C(Cc1cccc(CN2CCNCC2)c1)Nc1nnc(CCCCc2nnc(NC(=O)Cc3cccc(CN4CCNCC4)c3)s2)s1 [Compound 286] | 6400
37 | O=C(Nc1nnc(CCCCc2nnc(NC(=O)C(O)c3ccccc3Br)s2)s1)C(O)c1ccccc1Br (centres unmarked) [Compound 287] | 1300
38 | O=C(Nc1nnc(CCCCc2nnc(NC(=O)C(O)c3cccc(Br)c3)s2)s1)C(O)c1cccc(Br)c1 (centres unmarked) [Compound 288] | 28
39 | O=C(Cc1ccccc1)Nc1nnc(CCCCc2nnc(NC(=O)[C@H]3CCCC[C@@H]3C(=O)c3ccccc3)s2)s1 [Compound 290] | 790
40 | CC(C)[C@H](N)C(=O)OCC(C(=O)Nc1nnc(CCCCc2nnc(NC(=O)C(COC(=O)[C@@H](N)C(C)C)c3ccccc3)s2)s1)c1ccccc1 (some centres unmarked) [Compound 291] | 1800
41 | O=C(Cc1ccccc1F)Nc1nnc(CCCCc2nnc(NC(=O)Cc3ccccc3F)s2)s1 [Compound 292] | 12
42 | O=C(Cc1c(F)cccc1F)Nc1nnc(CCCCc2nnc(NC(=O)Cc3c(F)cccc3F)s2)s1 [Compound 293] | 40
43 | O=C(Cc1ccccc1F)Nc1nnc(CCSCCc2nnc(NC(=O)Cc3ccccc3F)s2)s1 [Compound 294] | 1100
44 | Cc1nccn1Cc1cccc(CC(=O)Nc2nnc(CCCCc3nnc(NC(=O)Cc4cccc(Cn5ccnc5C)c4)s3)s2)c1 [Compound 296] | 170
45 | O=C(Cc1c(F)cccc1F)Nc1nnc(CCSCCc2nnc(NC(=O)Cc3c(F)cccc3F)s2)s1 [Compound 298] | 5100
46 | CCOc1ccccc1CC(=O)Nc1nnc(CCCCc2nnc(NC(=O)Cc3ccccc3OCC)s2)s1 [Compound 300] | 160

Row | SMILES | IC50 [nM]
47 | O=C(OCC(C(=O)Nc1nnc(CCCCc2nnc(NC(=O)C(COC(=O)C3CCN(C(=O)OCc4ccccc4)CC3)c3ccccc3)s2)s1)c1ccccc1)C1CCN(C(=O)OCc2ccccc2)CC1 (centres unmarked) [Compound 301] | 230
48 | O=C(OCC(C(=O)Nc1nnc(CCCCc2nnc(NC(=O)C(COC(=O)C3CCNCC3)c3ccccc3)s2)s1)c1ccccc1)C1CCNCC1 (centres unmarked) [Compound 302] | 870
49 | O=C(Cc1ccccc1)Nc1nnc(CCCCc2nnc(NC(=O)[C@@H]3CCCC[C@H]3C(O)c3ccccc3)s2)s1 (some centres unmarked) [Compound 304] | 4900
50 | O=C(Cc1ccccc1)Nc1nnc(CCCCc2nnc(NC(=O)Cc3ccccc3)o2)o1 [Compound 305] | 102000
51 | O=C(Nc1nnc(CCCCc2nnc(NC(=O)C(O)c3cccc(Cl)c3)s2)s1)C(O)c1cccc(Cl)c1 (centres unmarked) [Compound 306] | 66
52 | O=C(Cc1ccccn1)Nc1nnc(CCSCCc2nnc(NC(=O)Cc3ccccn3)s2)s1 [Compound 308] | 1200
53 | O=C(Cc1ccccc1)Nc1nnc(CCCCc2nnc(NC(=O)Cc3cccnc3)s2)s1 [Compound 309] | 180
54 | O=C(Cc1cccnc1)Nc1nnc(CCCCc2nnc(NC(=O)Cc3cccnc3)s2)s1 [Compound 311] | 22000
55 | O=C(Cc1ccccc1)Nc1ccc(CCCCc2nnc(NC(=O)C(O)c3ccccc3)s2)nn1 (centres unmarked) [Compound 315] | 35
56 | O=C(Cc1ccccc1)Nc1nnc(CCCCc2nnc(NC(=O)C(CO)c3ccccc3)s2)s1 (centres unmarked) [Compound 316] | 75
57 | COc1cccc(C(O)C(=O)Nc2nnc(CCCCc3ccc(NC(=O)Cc4ccccc4)nn3)s2)c1 (centres unmarked) [Compound 317] | 10
58 | COc1cc(C(O)C(=O)Nc2nnc(CCCCc3nnc(NC(=O)C(O)c4ccc(O)c(OC)c4)s3)s2)ccc1O (centres unmarked) [Compound 319] | 10000
59 | COc1ccc(C(O)C(=O)Nc2nnc(CCCCc3nnc(NC(=O)C(O)c4ccc(OC)cc4)s3)s2)cc1 (centres unmarked) [Compound 320] | 190
60 | C[C@H](O)C(=O)Nc1nnc(CCCCc2nnc(NC(=O)Cc3ccccc3)s2)s1 [Compound 321] | 2600
61 | C[C@@H](O)C(=O)Nc1nnc(CCCCc2nnc(NC(=O)Cc3ccccc3)s2)s1 [Compound 322] | 3000
62 | O=C(Cc1cccc2[nH]ccc12)Nc1nnc(CCCCc2nnc(NC(=O)Cc3cccc4[nH]ccc34)s2)s1 [Compound 323] | 200
63 | CC(C)(C)OC(=O)Nc1cccc(CC(=O)Nc2nnc(CCCCc3nnc(NC(=O)Cc4cccc(NC(=O)OC(C)(C)C)c4)s3)s2)c1 [Compound 327] | 150
64 | O=C(CCN1CCOCC1)OC(C(=O)Nc1nnc(CCCCc2nnc(NC(=O)C(OC(=O)CCN3CCOCC3)c3cccc(Cl)c3)s2)s1)c1cccc(Cl)c1 (centres unmarked) [Compound 332] | 87
65 | O=C(Cc1ccccc1)Nc1nnc(CCCCc2nnc(NC(=O)Cc3ccccc3CO)s2)s1 [Compound 333] | 1600
66 | O=C(Cc1ccccc1)Nc1ccc(CCCCc2nnc(NC(=O)C(OC(=O)CCN3CCOCC3)c3ccccc3)s2)nn1 (centres unmarked) [Compound 334] | 30
67 | O=C(Cc1ccccc1)Nc1ccc(CCCCc2nnc(NC(=O)Cc3cccc(Cl)c3)s2)nn1 [Compound 335] | 50
68 | NCc1cccc(CC(=O)Nc2nnc(CCCCc3ccc(NC(=O)Cc4ccccc4)nn3)s2)c1 [Compound 341] | 39
